Test results: patent US10106498B2, “Compositions relating to vitamin D” (Siemens Healthcare Diagnostics Inc., priority 2014, dated 2018)
Where “and” joins values, the source holds several entries; their conditions need not be identical. Identical values can stand only once.

Tested on: biotinylated monoclonal anti-25OH vitamin D antibody
Assay: LOCI 25(OH)D immunoassay: 3-epimer cross-reactivity, no anti-3-epimer antibody added
Format: binding, sheep
Conditions: for Avg. Cross-reactivity, No anti-3-epimer VD Ab Added: average of ten patient sera spiked with 100 ng/mL 3-epimer vitamin D3
Method: The 25OH Vitamin D (25(OH)D) immunoassay format employed was a homogeneous competitive chemiluminescent immunoassay based on LOCI® assay technology. The assay was performed on the Siemens Dimension® EXL automated integrated clinical chemistry system (Siemens Healthcare Diagnostics Inc., Deerfield, Ill.). The assay measured the total concentration of 25(OH)D2 and/or 25(OH)D3 in serum and plasma samples. The LOCI® assay reagents included a releasing reagent, two synthetic bead reagents and a biotinylated monoclonal anti-25OH vitamin D antibody reagent. The first bead reagent (designated “Sensibeads”) was coated with streptavidin and contained a photosensitive dye. The second bead reagent (designated “Chemibeads”) was coated with a 25(OH)D3 analog and contained chemiluminescent dye. Sample was incubated with the releasing reagent to release 25(OH)D molecules including 3-epimeric compounds from vitamin D binding proteins. The reaction mixture was then incubated with biotinylated antibody to form a 25(OH)D-biotinylated antibody complex. […] Chemibeads were added to bind excess free biotinylated antibody. Sensibeads were then added to bind to the biotin portion of the biotinylated antibody. Aggregates of Chemibead-analog/antibody-biotin/streptavidin-Sensibeads were formed as a result. Illumination of the reaction mixture with light at 680 nm generates singlet oxygen from Sensibeads, which diffused into the Chemibeads and triggered a chemiluminescent reaction. The resulting chemiluminescent signal was measured at 612 nm and is inversely proportional to the concentration of total 25(OH)D in the sample.
The effect of adding anti-3-epimer-VD antibody 8F10.1 (anti-3-epimer VD Ab) on the 3-epimer cross-reactivity for the assay is shown in Table 1. […] The 3-epimer cross-reactivity was calculated by the difference between 25(OH)D2 or 25(OH)D3 values with and without the spiked 3-epimer compound divided by the amount of added 3-epimer compound.

Compound: C=C1CC[C@@H](O)C/C1=C/C=C1\CCC[C@]2(C)[C@@H]([C@H](C)CCCC(C)(C)O)CC[C@@H]12 [3-epimer D3, 3-epi-25-hydroxyvitamin D3]
- Avg. Cross-reactivity, No anti-3-epimer VD Ab Added: 13.7%
- Avg. Cross-reactivity, No anti-3-epimer VD Ab Added (listed as 3-epimer vitamin D3 compound): 13.7%
- Cross-Reactivity, No anti-3-epimer VD Ab Added (individual patient sera (Sample ID 1-10) spiked with 100 ng/mL 3-epimer vitamin D3): 17.9% (2×) and 11.9% and 12.6% and 16.1% and 10.2% and 9.1% and 10.5% and 15.3% and 15.5%
